Laboratory results taken from patent US5770573A, “CS-1 peptidomimetics, compositions and methods of using the same” (Cytel Corporation, priority 1995, dated 1998).
Square brackets hold non-standard residues; d marks the D form. Peptide text beside a SMILES is read from it. * marks the point of attachment. Phe(4-NO2) = N[C@@H](Cc1ccc([N+](=O)[O-])cc1)C(=O)O; NHOctadecyl = CCCCCCCCCCCCCCCCCCN*; hPhe = N[C@@H](CCc1ccccc1)C(=O)O; Cha = N[C@@H](CC1CCCCC1)C(=O)O; NMeD = CN[C@@H](CC(=O)O)C(=O)O; Morpholide = C1CN(*)CCO1; Nle = CCCC[C@H](N)C(=O)O; Octanoyl = CCCCCCCC(=O)*; Cbz = O=C(OCc1ccccc1)*; PhAc = O=C(Cc1ccccc1)*; ODecyl = CCCCCCCCCCO*; X5 = CCCCCCCCCCCCO*; Ahx = NCCCCCC(=O)O

Biological target: VLA-4 (Homo sapiens, UniProt P05556+P13612)
Experiment: In vitro binding inhibition of 51Cr-labeled Jurkat cells to solid phase-bound CS-1 compound (SEQ ID NO:1)
Format: cell-based
Parameters: inflammatory cells that contain the VLA-4 receptor [Jurkat cells; host or cells: Jurkat (human T lymphoblastic line)
Conditions: not given
Outline: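 51Cr-labeled human Jurkat cells were preincubated with compound 30 min at about 22° C, then allowed to bind to wells coated with CS-1 peptide or CS-1-OVA for 30 min at 37° C. After washing, bound cells were lysed with SDS and counted. IC50 is the concentration halving binding, normalized to SEQ ID NO: 3.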

Chain of VLA-4 (P13612 34-1032): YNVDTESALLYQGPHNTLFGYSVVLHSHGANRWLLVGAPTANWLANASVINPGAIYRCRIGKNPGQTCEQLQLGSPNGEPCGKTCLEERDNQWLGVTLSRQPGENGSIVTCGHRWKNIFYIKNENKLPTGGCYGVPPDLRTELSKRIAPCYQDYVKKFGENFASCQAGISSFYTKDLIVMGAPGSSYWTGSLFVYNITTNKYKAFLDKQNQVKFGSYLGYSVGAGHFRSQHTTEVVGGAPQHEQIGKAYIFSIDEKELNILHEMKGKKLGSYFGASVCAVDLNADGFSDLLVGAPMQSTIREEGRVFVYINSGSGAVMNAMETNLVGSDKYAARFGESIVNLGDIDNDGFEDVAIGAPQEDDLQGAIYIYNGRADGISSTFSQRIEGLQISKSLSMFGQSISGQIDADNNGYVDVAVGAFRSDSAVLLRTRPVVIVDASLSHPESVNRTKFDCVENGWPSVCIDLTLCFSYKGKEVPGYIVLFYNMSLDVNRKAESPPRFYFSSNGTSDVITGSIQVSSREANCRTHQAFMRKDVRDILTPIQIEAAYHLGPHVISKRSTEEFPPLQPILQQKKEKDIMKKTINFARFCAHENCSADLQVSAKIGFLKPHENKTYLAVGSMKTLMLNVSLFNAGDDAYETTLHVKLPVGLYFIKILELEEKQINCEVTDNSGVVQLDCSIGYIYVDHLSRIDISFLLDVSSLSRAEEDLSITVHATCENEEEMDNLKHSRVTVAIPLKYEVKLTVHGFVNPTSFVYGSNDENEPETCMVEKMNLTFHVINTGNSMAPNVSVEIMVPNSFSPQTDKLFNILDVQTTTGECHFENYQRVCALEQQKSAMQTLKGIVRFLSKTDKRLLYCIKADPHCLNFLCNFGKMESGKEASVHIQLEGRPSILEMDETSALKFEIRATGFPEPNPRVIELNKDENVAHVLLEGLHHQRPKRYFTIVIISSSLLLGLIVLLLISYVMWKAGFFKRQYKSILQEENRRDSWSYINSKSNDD
Chain of VLA-4 (P05556 21-798): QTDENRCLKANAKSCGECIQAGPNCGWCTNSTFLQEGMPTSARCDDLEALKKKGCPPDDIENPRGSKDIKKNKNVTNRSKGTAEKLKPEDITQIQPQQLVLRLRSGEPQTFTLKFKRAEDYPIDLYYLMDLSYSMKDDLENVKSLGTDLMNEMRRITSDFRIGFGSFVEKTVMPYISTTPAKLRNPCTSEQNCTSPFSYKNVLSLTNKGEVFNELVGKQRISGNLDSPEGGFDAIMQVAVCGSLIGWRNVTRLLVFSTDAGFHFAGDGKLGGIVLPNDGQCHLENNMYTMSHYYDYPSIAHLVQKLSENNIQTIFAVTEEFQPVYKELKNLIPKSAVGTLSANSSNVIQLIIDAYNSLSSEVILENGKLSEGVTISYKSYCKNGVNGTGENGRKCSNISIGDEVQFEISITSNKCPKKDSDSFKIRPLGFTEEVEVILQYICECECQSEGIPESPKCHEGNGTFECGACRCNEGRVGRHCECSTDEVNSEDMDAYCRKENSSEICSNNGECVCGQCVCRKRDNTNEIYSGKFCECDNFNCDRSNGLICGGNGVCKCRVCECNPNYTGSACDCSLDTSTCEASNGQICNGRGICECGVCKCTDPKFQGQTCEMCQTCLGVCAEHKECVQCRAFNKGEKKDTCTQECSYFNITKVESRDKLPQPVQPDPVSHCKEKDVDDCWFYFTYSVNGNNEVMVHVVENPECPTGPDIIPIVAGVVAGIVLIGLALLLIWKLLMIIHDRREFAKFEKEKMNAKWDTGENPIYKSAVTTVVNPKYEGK

For `CC(=O)N[C@@H](CC(C)C)C(=O)N[C@@H](CC(=O)O)C(=O)N[C@@H](Cc1ccccc1)C(N)=O` [926.32] (Ac-Leu-Asp-Phe-NH2), the “Relative Potency” value was “.47”.
`CCCC[C@H](NC(=O)[C@@H](N)[C@@H](C)CC)C(=O)N[C@@H](CC(=O)O)C(=O)N[C@H](C(=O)N1CCC[C@H]1C(N)=O)C(C)C` [926.09] (H-I[Nle]DVP-NH2) was tested, and the “Relative Potency” value was “.41”.
`CCCC[C@H](NC(=O)[C@H](CC(=O)O)NC(=O)[C@H](CC(C)C)NC(=O)[C@@H](N)[C@@H](C)CC)C(=O)N1CCC[C@H]1C(N)=O` [926.15] (H-ILD[Nle]P-NH2) was tested, and the “Relative Potency” value was “.08”.
With `NC(=O)[C@H]1CCCN1C(=O)[C@H](Cc1ccccc1)NC(=O)[C@H](CC(=O)O)NC(=O)CCCCc1ccccc1` [1056.04] the “Relative Potency” value was “.2”.
For `CC(C)C[C@H](NC(=O)[C@H](N)Cc1ccccc1)C(=O)N[C@@H](CC(=O)O)C(=O)N[C@H](C(=O)N1CCC[C@@H]1C(N)=O)C(C)C` [926.05] (H-[dF]LDV[dP]-NH2), the “Relative Potency” value was “.94”.

Compared with `NC(=O)[C@H]1CCCN1C(=O)[C@H](Cc1ccccc1)NC(=O)[C@H](CC(=O)O)NC(=O)[C@H](CC1CCCCC1)NC(=O)[C@@H](N)Cc1ccccc1` [896.30] (H-F[Cha]DF[dP]-NH2), `CC(C)[C@H](NC(=O)[C@H](CC(=O)O)NC(=O)[C@H](CC1CCCCC1)NC(=O)[C@@H](N)Cc1ccccc1)C(=O)N1CCC[C@@H]1C(N)=O` [896.33] (H-F[Cha]DV[dP]-NH2) is lower in “Relative Potency” value: 2.69 for the first, 2.61 for the second.

Going from `Cc1cccc(C(=O)N[C@@H](CC(C)C)C(=O)N[C@@H](CC(=O)O)C(=O)N[C@H](C(=O)N2CCC[C@@H]2C(N)=O)C(C)C)c1C` [896.38] to `CC(C)C[C@H](NC(=O)C12CC3CC(CC(C3)C1)C2)C(=O)N[C@@H](CC(=O)O)C(=O)N[C@H](C(=O)N1CCC[C@@H]1C(N)=O)C(C)C` [896.50], the “Relative Potency” value falls from 6.57 to 1.38.

`CCCCCCCC(=O)N[C@@H](CC(=O)O)C(=O)N[C@@H](Cc1ccccc1)C(=O)N1CCC[C@@H]1C(N)=O` [1056.12] (Octanoyl-Asp-Phe-[dP]-NH2) and `NC(=O)[C@H]1CCCN1C(=O)[C@H](Cc1ccccc1)NC(=O)[C@H](CC(=O)O)NC(=O)CCCCC[N+](=O)[O-]` [1056.11] are the same in “Relative Potency” value: 0 for the first, 0 for the second.

Going from `CC(C)C[C@H](NC(=O)OCc1ccccc1)C(=O)N[C@@H](CC(=O)O)C(=O)N[C@@H](Cc1ccccc1)C(=O)N1CCC[C@@H]1C(N)=O` [1056.01] (Cbz-LDF[dP]-NH2) to `CC(C)=CCCC(C)CC(=O)N[C@@H](CC(=O)O)C(=O)N[C@@H](Cc1ccccc1)C(=O)N1CCC[C@@H]1C(N)=O` (stereo partly shown) [1056.10], the “Relative Potency” value falls from 34.4 to 0.

With `NC(=O)[C@H]1CCCN1C(=O)[C@H](Cc1ccccc1)NC(=O)[C@H](CC(=O)O)NC(=O)CCCCCC1CCCCC1` [1056.07] the “Relative Potency” value was 0.

Same assay, conditions: binding inhibition potency relative to standard compound of SEQ ID NO:3 = 1 (normalized IC50); about one-tenth or less assigned zero

Going from `CC(C)C[C@H](NC(=O)Cc1ccccc1)C(=O)N[C@@H](CC(=O)O)C(=O)NC1Cc2ccccc2N(CCN2CCOCC2)C1=O` (stereo partly shown) [997.18] to `CC(C)C[C@H](NC(=O)Cc1ccccc1)C(=O)N[C@@H](CC(=O)O)C(=O)NN1Cc2ccccc2NC1=O` [997.17], the “Relative Potency” value falls from 20 to 1.35.

Going from `CC(C)C[C@H](NC(=O)Cc1ccccc1)C(=O)N[C@@H](CC(=O)O)C(=O)N[C@@H](Cc1ccccc1)C(=O)N1CC[N+](C)(C)CC1` [1111.08] to `CC(C)C[C@H](NC(=O)Cc1ccccc1)C(=O)N[C@@H](CC(=O)O)C(=O)N[C@@H](Cc1ccccc1)C(=O)N1CCNCC1` [1051.02], the “Relative Potency” value rises from 218 to 507.

Compared with `CCCC[C@H](NC(=O)Cc1ccccc1)C(=O)N[C@@H](CC(=O)O)C(=O)N[C@@H](Cc1ccccc1)C(=O)N1CCC[C@@H]1C(N)=O` [1160.02] (PhAc-[Nle]DF[dP]-NH2), `CC(C)C[C@H](NC(=O)Cc1ccccc1)C(=O)N[C@@H](CC(=O)O)C(=O)N[C@@H](CCc1ccccc1)C(=O)N1CCC[C@@H]1C(N)=O` [1062.03] (PhAc-LD[hPhe][dP]-NH2) is higher in “Relative Potency” value: 49 for the first, 93.9 for the second.

Going from `O=C(O)C[C@H](NC1CCN(C(=O)Cc2ccccc2)CC1)C(=O)N[C@@H](Cc1ccccc1)C(=O)N1CCCC1` [992.01] to `CC(C)C[C@H](NC(=O)Cc1ccccc1)C(=O)N[C@@H](CC(=O)O)C(=O)N[C@@H](Cc1ccccc1)C(=O)N1CCC(CC(=O)O)CC1` [1190.02], the “Relative Potency” value rises from 0 to 591.

Compared with `CC(C)C[C@H](NC(=O)Cc1ccccc1)C(=O)N[C@@H](CC(=O)O)C(=O)N[C@@H](Cc1ccc([N+](=O)[O-])cc1)C(=O)N1CCC[C@@H]1C(N)=O` [896.68] (PhAc-LD[Phe(4-NO2)][dP]-NH2), `CC(C)C[C@H](NC(=O)Cc1ccccc1)C(=O)N[C@@H](CC(=O)O)C(=O)N[C@@H](Cc1ccc(O)cc1)C(=O)N1CCC[C@@H]1C(N)=O` [896.61] (PhAc-LDY[dP]-NH2) is higher in “Relative Potency” value: 39.9 for the first, 612 for the second.

Compared with `CC(C)C[C@H](NC(=O)Cc1ccccc1)C(=O)N(C)[C@@H](CC(=O)O)C(=O)N[C@@H](Cc1ccccc1)C(=O)N1CCC[C@@H]1C(N)=O` [1190.06] (PhAc-L[NMeD]F[dP]-NH2), `CC(C)C[C@H](NC(=O)Cc1ccccc1)C(=O)N[C@@H](CC(=O)O)C(=O)N[C@@H](Cc1ccccc1)C(=O)N1CCN(CCC(=O)O)CC1` [1190.03] is higher in “Relative Potency” value: 0 for the first, 998 for the second.

First: NC(=O)[C@H]1CCCN1C(=O)[C@H](Cc1ccccc1)NC(=O)[C@H](CC(=O)O)NC(=O)CCCCC1CCSS1 (stereo partly shown) [1056.09]
Second: CC(C)C[C@H](NC(=O)c1ccccc1)C(=O)N[C@@H](CC(=O)O)C(=O)N[C@H](C(=O)N1CCC[C@H]1C(N)=O)C(C)C [896.35]
The “Relative Potency” value of the first is lower: 1.1 for the first, 16 for the second.

First: CC(C)C[C@H](NC(=O)Cc1ccccc1)C(=O)N[C@@H](CC(=O)O)C(=O)N[C@@H](CC(C)C)C(=O)N1CCOCC1 [997.20] (PhAc-Leu-Asp-Leu-Morpholide)
Second: CC(C)C[C@H](NC(=O)Cc1ccccc1)C(=O)N[C@@H](CC(=O)O)C(=O)N[C@@H](Cc1ccccc1)C(=O)NN1CCOCC1 [1111.10]
The “Relative Potency” value of the first is higher: 291 for the first, 98.9 for the second.

Compared with `Cc1ccc(S(=O)(=O)N2CCN(C(=O)[C@H](Cc3ccccc3)NC(=O)[C@H](CC(=O)O)NC(=O)[C@H](CC(C)C)NC(=O)Cc3ccccc3)CC2)cc1` [1111.01], `CC(C)C[C@H](NC(=O)Cc1ccccc1)C(=O)N[C@@H](CC(=O)O)C(=O)N[C@@H](Cc1ccccc1)C(=O)NCCCO` [1051.05] is lower in “Relative Potency” value: 363 for the first, 25 for the second.

Compared with `CC(C)C[C@H](NC(=O)Cc1ccccc1)C(=O)N[C@@H](CC(=O)O)C(=O)N[C@@H]1CCCCNC1=O` [1043.01], `CC(C)C[C@H](NC(=O)Cc1ccccc1)C(=O)N[C@@H](CC(=O)O)C(=O)NC1CCCCNC1=O` (stereo partly shown) [1043.02] is higher in “Relative Potency” value: 17.2 for the first, 26.8 for the second.

Same assay, conditions: relative to SEQ ID NO:3 = 1; potency before the prodrug compound is enzymatically converted to an active form

`CCCCCCCCCCOC(=O)C[C@H](NC(=O)[C@H](CC(C)C)NC(=O)Cc1ccccc1)C(=O)N[C@@H](Cc1ccccc1)C(=O)N1CCC[C@@H]1C(N)=O` [1068.09] (PhAc-LD(ODecyl)F[dP]-NH2) and `CCCCCCCCCCCCOC(=O)C[C@H](NC(=O)[C@H](CC(C)C)NC(=O)Cc1ccccc1)C(=O)N[C@@H](Cc1ccccc1)C(=O)N1CCC[C@@H]1C(N)=O` [1068.10] (PhAc-LD(X5)F[dP]-NH2) are the same in “Relative Potency (prodrug compound)” value: 0 for the first, 0 for the second.

With `CCCCCCCCCCCCCCCCCCNC(=O)CCCCCNC(=O)[C@@H]1CCCN1C(=O)[C@H](Cc1ccccc1)NC(=O)[C@H](CC(=O)O)NC(=O)[C@H](CC(C)C)NC(=O)Cc1ccccc1` [1068.01] (PhAc-LDFP[Ahx]-NHOctadecyl) the “Relative Potency (prodrug compound)” value was “.91”.
